Measurements taken from US20210221848A1, “POLYMYXIN DERIVATIVES AND THEIR USE IN COMBINATION THERAPY TOGETHER WITH DIFFERENT ANTIBIOTICS” (priority 2014, published 2021).
Read-outs that look alike come from different tables or passages of the source.

How the values were obtained:
[1] = test system: E. coli strains with elevated MICs to Polymyxin B; test: MIC against strains with elevated MICs to Polymyxin B; type: cell-based, Escherichia coli; details: Table 6D; for MIC E. coli 058: strain 058, elevated MIC to Polymyxin B; for MIC E. coli 059: strain 059, elevated MIC to Polymyxin B; for MIC E. coli 060: strain 060, elevated MIC to Polymyxin B; for MIC E. coli 061: strain 061, elevated MIC to Polymyxin B
Protocol: (§1) The inoculum was prepared by making a direct suspension of isolated colonies (selected from an 18-24 hour Mueller-Hinton agar plate) adjusted to the 0.5 McFarland standard. […] The assays were performed in duplicate. […] In cases where the duplicate values varied by less than 2-fold, the lower of the two values is reported. If a variation of greater than 2-fold was observed, the assay was considered non-valid. Several of the compounds were subjected to multiple tests, and where this is the case, the MIC reflects the modal value obtained.
(§2) The Further Synthesis Examples were tested against a range of Gram negative bacteria, and tested for HK-2 cell toxicity. All the worked examples, including the Synthesis and Further Synthesis Examples, were also tested against a range of Gram negative bacteria that are resistant to Polymyxin B (i.e. those strains where Polymyxin B has an elevated MIC value).

[2] = test system: K. pneumoniae strains with elevated MICs to Polymyxin B; test: as above; type: cell-based, Klebsiella pneumoniae; details: Table 6D; for MIC K. pneumoniae 062: strain 062, elevated MIC to Polymyxin B; for MIC K. pneumoniae 063: strain 063, elevated MIC to Polymyxin B; for MIC K. pneumoniae 064: strain 064, elevated MIC to Polymyxin B; for MIC K. pneumoniae 655: strain 655, elevated MIC to Polymyxin B
Protocol: as §1, §2

[3] = test system: P. aeruginosa strains with elevated MICs to Polymyxin B; test: as above; type: cell-based, Pseudomonas aeruginosa; details: Table 6D; for MIC P. aeruginosa 065: strain 065, elevated MIC to Polymyxin B; for MIC P. aeruginosa 066: strain 066, elevated MIC to Polymyxin B; for MIC P. aeruginosa 067: strain 067, elevated MIC to Polymyxin B
Protocol: as §1, §2

[4] = test system: A. baumanii strains with elevated MICs to Polymyxin B; test: as above; type: cell-based, Acinetobacter baumannii; details: Table 6D; for MIC A. baumannii 053: strain 053, elevated MIC to Polymyxin B; for MIC A. baumannii 056: strain 056, elevated MIC to Polymyxin B; for MIC A. baumannii 068: strain 068, elevated MIC to Polymyxin B; for MIC A. baumannii 070: strain 070, elevated MIC to Polymyxin B
Protocol: as §1, §2

[5] = test system: E. coli
[6] = test system: K. pneumoniae
[7] = test system: P. aeruginosa
[8] = test system: A. baumannii
[9] = absence of a second agent, Table 6B

For “trans-4- octylpyrrolidine-3- carbonyl polymyxin B nonapeptide [Example D31]”, the “MIC E. coli 058” value [1] was 2 micrograms/mL, the “MIC E. coli 059” value [1] was 8 micrograms/mL and the “MIC E. coli 060” value [1] was 4 micrograms/mL. For the same substance, the “MIC E. coli 061” value [1] was 16 micrograms/mL, the “MIC K. pneumoniae 062” value [2] was 64 micrograms/mL and the “MIC K. pneumoniae 063” value [2] was greater than 128 micrograms/mL. The “MIC K. pneumoniae 064” value [2] was 64 micrograms/mL, the “MIC K. pneumoniae 655” value [2] was greater than 256 micrograms/mL and the “MIC P. aeruginosa 065” value [3] was 16 micrograms/mL. The “MIC P. aeruginosa 066” value [3] was 32 micrograms/mL, the “MIC P. aeruginosa 067” value [3] was greater than 64 micrograms/mL and the “MIC A. baumannii 053” value [4] was greater than 128 micrograms/mL. The “MIC A. baumannii 056” value [4] was 64 micrograms/mL, the “MIC A. baumannii 068” value [4] was 4 micrograms/mL and the “MIC A. baumannii 070” value [4] was 4 micrograms/mL. The “MIC, E. coli ATCC 25922” value [5, 9] was 2 micrograms/mL, the “MIC, E. coli NCTC 13441” value [5, 9] was 1 micrograms/mL and the “MIC, K. pneumoniae ATCC 4352” value [6, 9] was 0.5 micrograms/mL. The “MIC, P. aeruginosa ATCC 27853” value [7, 9] was 0.5 micrograms/mL, the “MIC, P. aeruginosa CCUG 59347” value [7, 9] was 1 micrograms/mL and the “MIC, A. baumannii ATCC BAA-747” value [8, 9] was 1 micrograms/mL. The “MIC, A. baumannii NCTC 13424” value [8, 9] was 2 micrograms/mL.

With “5-(3- methylbutanamido) piperidine-3- carbonyl Polymyxin B nonapeptide [Example D64]” the “MIC E. coli 058” value [1] was 64 micrograms/mL, the “MIC E. coli 059” value [1] was 128 micrograms/mL and the “MIC E. coli 060” value [1] was 64 micrograms/mL. The “MIC E. coli 061” value [1] was 64 micrograms/mL, the “MIC K. pneumoniae 062” value [2] was greater than 256 micrograms/mL and the “MIC K. pneumoniae 063” value [2] was greater than 256 micrograms/mL. For the same substance, the “MIC K. pneumoniae 064” value [2] was 128 micrograms/mL, the “MIC P. aeruginosa 065” value [3] was 64 micrograms/mL and the “MIC P. aeruginosa 066” value [3] was 64 micrograms/mL. For the same substance, the “MIC P. aeruginosa 067” value [3] was greater than 256 micrograms/mL, the “MIC A. baumannii 053” value [4] was greater than 256 micrograms/mL and the “MIC A. baumannii 056” value [4] was 256 micrograms/mL. For the same substance, the “MIC A. baumannii 068” value [4] was 128 micrograms/mL, the “MIC A. baumannii 070” value [4] was greater than 256 micrograms/mL and the “MIC, E. coli ATCC 25922” value ([5]; sole activity, Table 6C) was 0.25 micrograms/mL. The “MIC, E. coli NCTC 13441” value ([5]; sole activity, Table 6C) was 0.25 micrograms/mL, the “MIC, K. pneumoniae ATCC 4352” value ([6]; sole activity, Table 6C) was 0.25 micrograms/mL and the “MIC, K. pneumoniae ATCC BAA-2146” value ([6]; sole activity, Table 6C) was 0.25 micrograms/mL. For the same substance, the “MIC, P. aeruginosa ATCC 27853” value ([7]; sole activity, Table 6C) was 1 micrograms/mL, the “MIC, P. aeruginosa CCUG 59347” value ([7]; sole activity, Table 6C) was 1 micrograms/mL and the “MIC, A. baumannii ATCC BAA-747” value ([8]; sole activity, Table 6C) was 2 micrograms/mL. For the same substance, the “MIC, A. baumannii NCTC 13424” value ([8]; sole activity, Table 6C) was 2 micrograms/mL.

“5- (isobutoxy)piperi- dine-3-carbonyl Polymyxin B nonapeptide [Example D63]” was tested, and the “MIC E. coli 058” value [1] was 16 micrograms/mL, the “MIC E. coli 061” value [1] was 32 micrograms/mL and the “MIC K. pneumoniae 062” value [2] was 128 micrograms/mL. For the same substance, the “MIC K. pneumoniae 064” value [2] was 4 micrograms/mL, the “MIC P. aeruginosa 065” value [3] was 4 micrograms/mL and the “MIC P. aeruginosa 066” value [3] was 32 micrograms/mL. For the same substance, the “MIC P. aeruginosa 067” value [3] was greater than 256 micrograms/mL, the “MIC A. baumannii 056” value [4] was 128 micrograms/mL and the “MIC, E. coli ATCC 25922” value ([5]; sole activity, Table 6C) was 0.06 micrograms/mL. The “MIC, E. coli NCTC 13441” value ([5]; sole activity, Table 6C) was 0.125 micrograms/mL, the “MIC, K. pneumoniae ATCC 4352” value ([6]; sole activity, Table 6C) was 0.125 micrograms/mL and the “MIC, K. pneumoniae ATCC BAA-2146” value ([6]; sole activity, Table 6C) was 0.125 micrograms/mL. For the same substance, the “MIC, P. aeruginosa ATCC 27853” value ([7]; sole activity, Table 6C) was 0.5 micrograms/mL, the “MIC, P. aeruginosa CCUG 59347” value ([7]; sole activity, Table 6C) was 0.5 micrograms/mL and the “MIC, A. baumannii ATCC BAA-747” value ([8]; sole activity, Table 6C) was 0.25 micrograms/mL. For the same substance, the “MIC, A. baumannii NCTC 13424” value ([8]; sole activity, Table 6C) was 0.25 micrograms/mL.

In the case of “5- isobutoxypiperidine- 3-carbonyl L- Thr-L-Dap- polymyxin B heptapeptide [Example D70]”, the “MIC E. coli 058” value [1] is reported as 4 micrograms/mL, the “MIC E. coli 059” value [1] is reported as 8 micrograms/mL and the “MIC E. coli 060” value [1] is reported as 4 micrograms/mL. For the same substance, the “MIC E. coli 061” value [1] was 16 micrograms/mL, the “MIC K. pneumoniae 062” value [2] was 64 micrograms/mL and the “MIC K. pneumoniae 063” value [2] was 64 micrograms/mL. The “MIC K. pneumoniae 064” value [2] was 6 micrograms/mL, the “MIC K. pneumoniae 655” value [2] was 32 micrograms/mL and the “MIC P. aeruginosa 065” value [3] was 4 micrograms/mL. For the same substance, the “MIC P. aeruginosa 066” value [3] was 16 micrograms/mL, the “MIC P. aeruginosa 067” value [3] was greater than 256 micrograms/mL and the “MIC A. baumannii 053” value [4] was greater than 256 micrograms/mL. The “MIC A. baumannii 056” value [4] was 16 micrograms/mL, the “MIC A. baumannii 068” value [4] was 8 micrograms/mL and the “MIC A. baumannii 070” value [4] was 32 micrograms/mL. For the same substance, the “MIC, E. coli ATCC 25922” value ([5]; sole activity, Table 6C) was 0.125 micrograms/mL, the “MIC, E. coli NCTC 13441” value ([5]; sole activity, Table 6C) was 0.125 micrograms/mL and the “MIC, K. pneumoniae ATCC 4352” value ([6]; sole activity, Table 6C) was 0.06 micrograms/mL. The “MIC, P. aeruginosa ATCC 27853” value ([7]; sole activity, Table 6C) was 0.25 micrograms/mL, the “MIC, P. aeruginosa CCUG 59347” value ([7]; sole activity, Table 6C) was 0.5 micrograms/mL and the “MIC, A. baumannii ATCC BAA-747” value ([8]; sole activity, Table 6C) was 0.06 micrograms/mL. The “MIC, A. baumannii NCTC 13424” value ([8]; sole activity, Table 6C) was 0.125 micrograms/mL.

With “(trans-5-(isobutyl- piperidine)-3- carbonyl L-Ser- L-Dap-polymyxin B heptapeptide [Example D79]” the “MIC E. coli 058” value [1] was 8 micrograms/mL, the “MIC E. coli 059” value [1] was 8 micrograms/mL and the “MIC E. coli 060” value [1] was 4 micrograms/mL. The “MIC E. coli 061” value [1] was 8 micrograms/mL, the “MIC K. pneumoniae 062” value [2] was 64 micrograms/mL and the “MIC K. pneumoniae 063” value [2] was greater than 128 micrograms/mL. For the same substance, the “MIC K. pneumoniae 064” value [2] was 8 micrograms/mL, the “MIC K. pneumoniae 655” value [2] was 128 micrograms/mL and the “MIC P. aeruginosa 065” value [3] was 16 micrograms/mL. For the same substance, the “MIC P. aeruginosa 066” value [3] was 8 micrograms/mL, the “MIC P. aeruginosa 067” value [3] was greater than 128 micrograms/mL and the “MIC A. baumannii 053” value [4] was 128 micrograms/mL. For the same substance, the “MIC A. baumannii 056” value [4] was 32 micrograms/mL, the “MIC A. baumannii 068” value [4] was 8 micrograms/mL and the “MIC A. baumannii 070” value [4] was 16 micrograms/mL. The “MIC, E. coli ATCC 25922” value ([5]; sole activity, Table 6C) was 0.125 micrograms/mL, the “MIC, E. coli NCTC 13441” value ([5]; sole activity, Table 6C) was 0.125 micrograms/mL and the “MIC, K. pneumoniae ATCC 4352” value ([6]; sole activity, Table 6C) was 0.06 micrograms/mL. For the same substance, the “MIC, K. pneumoniae ATCC BAA-2146” value ([6]; sole activity, Table 6C) was 0.125 micrograms/mL, the “MIC, P. aeruginosa ATCC 27853” value ([7]; sole activity, Table 6C) was 0.25 micrograms/mL and the “MIC, P. aeruginosa CCUG 59347” value ([7]; sole activity, Table 6C) was 0.25 micrograms/mL. For the same substance, the “MIC, A. baumannii ATCC BAA-747” value ([8]; sole activity, Table 6C) was 0.06 micrograms/mL and the “MIC, A. baumannii NCTC 13424” value ([8]; sole activity, Table 6C) was 0.125 micrograms/mL.

“(S)-3-amino-2- ((2- trifluoromethylben- zyl)amino)propa- noyl L-Thr-L- Dap-polymyxin B heptapeptide [Example D76]” was tested, and the “MIC E. coli 058” value [1] was 4 micrograms/mL, the “MIC E. coli 059” value [1] was 6 micrograms/mL and the “MIC E. coli 060” value [1] was 2 micrograms/mL. For the same substance, the “MIC E. coli 061” value [1] was 8 micrograms/mL, the “MIC K. pneumoniae 062” value [2] was 64 micrograms/mL and the “MIC K. pneumoniae 063” value [2] was 16 micrograms/mL. For the same substance, the “MIC K. pneumoniae 064” value [2] was 2 micrograms/mL, the “MIC K. pneumoniae 655” value [2] was 16 micrograms/mL and the “MIC P. aeruginosa 065” value [3] was 2 micrograms/mL. For the same substance, the “MIC P. aeruginosa 066” value [3] was 2 micrograms/mL, the “MIC P. aeruginosa 067” value [3] was 64 micrograms/mL and the “MIC A. baumannii 053” value [4] was 64 micrograms/mL. The “MIC A. baumannii 056” value [4] was 16 micrograms/mL, the “MIC A. baumannii 068” value [4] was 8 micrograms/mL and the “MIC A. baumannii 070” value [4] was 16 micrograms/mL. The “MIC, E. coli ATCC 25922” value ([5]; sole activity, Table 6C) was 0.125 micrograms/mL, the “MIC, E. coli NCTC 13441” value ([5]; sole activity, Table 6C) was 0.25 micrograms/mL and the “MIC, K. pneumoniae ATCC 4352” value ([6]; sole activity, Table 6C) was 0.06 micrograms/mL. For the same substance, the “MIC, K. pneumoniae ATCC BAA-2146” value ([6]; sole activity, Table 6C) was 0.125 micrograms/mL, the “MIC, P. aeruginosa ATCC 27853” value ([7]; sole activity, Table 6C) was 0.25 micrograms/mL and the “MIC, P. aeruginosa CCUG 59347” value ([7]; sole activity, Table 6C) was 0.25 micrograms/mL. For the same substance, the “MIC, A. baumannii ATCC BAA-747” value ([8]; sole activity, Table 6C) was 0.06 micrograms/mL and the “MIC, A. baumannii NCTC 13424” value ([8]; sole activity, Table 6C) was 0.25 micrograms/mL.
